Measured values taken from patent publication US8183364B2, “Substituted porphyrins” (Duke University, priority 2004, dated 2012).
Entries after “also recorded” stand apart in the source; their conditions may differ. Where two headings read alike, the source gives them in different places.

Legend:
[1] = stroke model; cited from earlier work
[2] = Oxidative degradation in the presence of ascorbic acid under aerobic conditions; type: physicochemical; conditions: pH 7.8 (0.05 M tris buffer)
Procedure: Under these conditions porphyrins underwent oxidative degradation. As previously observed (Batinic-Haberle et al, J. Chem. Soc., Dalton Trans., pgs. 2689-2696 (2002)), those porphyrins that are of more positive E1/2 are stabilized in +2 oxidation state and are less prone to oxidative damage. Accordingly, 27% and 24% of MnTE-2-PyP^5+ and MnTMOE-2-PyP^5+ undergo degradation within 2 hours, but only 2% of MnTM,MOE-2-ImP^5+ and MnTDMOE-2-ImP^5+ and 3% of MnTDE-2-ImP^5+.

[3] = system: SOD-deficient JI132 E. coli; assay: Aerobic growth of SOD-deficient E. coli; type: cell-based
Procedure: (§1) Aerobic growth of E. coli. Bacterial strains of E. coli used were wild type AB1157 (F-thr-1 leu-1 proA2 his-4 argE3 thr-1 lacY1 galK2 rpsL supE44 ara-14 xyl-15 mtl-1 tsx-33) and SOD-deficient JI132 (same as AB1157 plus (sodA::mudPR13)25 (sodB-kan)1-Δ2. Culture media were prepared as follows. M9 medium: 6 g/L Na2HPO4, 3 g/L KH2PO4, 0.5 g/L NaCl, 1 g/L NH4Cl, 2 mM MgSO4, 0.1 mM CaCl2, adjusted to pH 7.4 with NaOH, and supplemented with 0.2% glucose, 3 mg/L each of D-panthotenic acid and thiamine. M9CA medium contained M9 medium plus 0.2% casamino acids. 5-amino acid (5AA) minimal medium contained M9 medium plus 0.5 mM each of threonine, leucine, histidine, proline and arginine (Faulkner et al, J. Biocl. Chem. 269:23471 (1994)).
(§2) AB 1157 and 31132 were precultured overnight aerobically in M9CA medium at 37° C. and were then diluted to 3×10^7 cells/mL into 5 mL M9CA medium. JI132 was precultured in the presence of 20 μg/mL chloramphenicol and 500 μg/mL kanamycin. When the cells are transferred from M9CA medium to 5AA minimal medium cultures were first centrifuged and washed twice with the 5AA medium before final dilution in it. The centrifugation was conducted at room temperature to avoid temperature shocks. Cultures without and with Mn porphyrins (0.1 to 30 μM) were grown aerobically in 5 mL volume in test tubes in a thermostated orbital shaker (45° angle, 200 rpm) at 37° C.). Rates of growth were followed turbidimetrically at 700 nm to minimize interference from the absorbance of test compounds.

[4] = Thin-layer chromatography on silica gel (retention factor Rf, lipophilicity); type: physicochemical
Procedure: Uv/vis spectra of porphyrin ligands and their Mn complexes were taken on a Shimadzu UV-2501-PC spectrophotometer at 25° C. Thin-layer chromatography of ligands and Mn complexes was done using silica gel plates with KNO3satH2O/H2O/acetonitrile=1/1/8.
Thin-layer chromatography. All new methoxyporphyrins are more lipophilic than MnTE-2-PyP^5+ and MnTDE-2-ImP^5+.

[5] = given intravenously; cited from earlier work
[6] = Catalysis of O2.^− dismutation by pulse radiolysis; type: biochemical; conditions: pulse radiolysis, pH 7.8, (22 ± 1) °C; kcat ±30%
Procedure: Catalysis of O2.^− dismutation. The catalytic rate constants for the O2.^− dismutation were determined by pulse radiolysis in 0.05 M phosphate buffer (pH 7.8) at (22±1)° C. as previously described (Batinic-Haberle et al, Inorg. Chem. 40:726 (2001)). In the present study 10 mM formate was used as a scavenger for H. atoms and .OH radicals, which leads first to production of CO2.^− radicals and then to O2.^− radicals. This system is known to lead to conversion of all primary radicals of water radiolysis into O2.^−.
Catalysis of O2.^− dismutation. Pulse radiolysis was used to assess the SOD-like activities of the Mn porphyrins studied. The initial concentration of O2.^− produced by the pulse was about 27 μM, and the concentration of the Mn porphyrin was between 0.5 and 5 μM. The dismutation of O2.^− was followed at 280 nm. The catalytic rate constant was determined from the linear dependence of kobs upon the concentration of the catalyst (Batinic-Haberle et al, Inorg. Chem. 40:726 (2001)). All the new compounds have high O2.^− dismuting ability. The magnitude of the catalysis is due to the interplay of the electron-withdrawing effects of quaternized ortho pyridyl or di-ortho imidazolyl groups, favorable electrostatics, and the solvation of the metal site.

[7] = Electrochemistry: cyclic voltammetry of the Mn(III)/Mn(II) redox couple; type: physicochemical
Procedure: Electrochemistry. Measurements were performed on a CH Instruments Model 600 Voltammetric Analyzer (Spasojevic and Batinic-Haberle, Inorg. Chim. Acta. 317:230-242 (2001), Batinic-Haberle et al, J. Biol. Chem. 273:24521-24528 (1998), Batinic-Haberle et al, Inorg. Chem. 38:4011-4022 (1999)). A three-electrode system in a small volume cell (0.5 mL to 3 mL), with a 3 mm-diameter glassy carbon button working electrode (Bioanalytical Systems), plus the Ag/AgCl reference and Pt auxiliary electrodes was used. Argon-purged solutions contained 0.05 M phosphate buffer, pH 7.8, 0.1 M NaCl, and 0.5 mM metalloporphyrin. The scan rates were 0.01-0.5 V/s, typically 0.1 V/s. The potentials were standardized against the potassium ferrocyanide/ferricyanide (Kolthof and Tomsicek, J. Phys. Chem. 39:945 (1935)) and/or against MnTE-2-PyP^5+ (Spasojevic and Batinic-Haberle, Inorg. Chim. Acta. 317:230-242 (2001), Batinic-Haberle et al, J. Biol. Chem. 273:24521-24528 (1998), Batinic-Haberle et al, Inorg. Chem. 38:4011-4022 (1999)).
Electrochemistry. All cyclic voltammograms, ascribed to the Mn(III)/Mn(II) redox couple, are reversible. The E1/2 of di-ortho ethylimidazolylporphyrin, MnTDE-2-ImP^5+ is 118 mV more positive than of ortho ethylpyridylporphyrin, MnTE-2-PyP^5+ (+228 mV vs NHE), as a consequence of charge delocalization. A similar difference of 114 mV was seen between their methoxyethyl analogues. Mn porphyrins bearing N-pyridyl substituents of the same length, MnTnBu-PyP^5+ and MnTMOE-2-PyP^5+, have nearly identical E1/2 of +254 and +251 mV vs NHE, which is 26 and 23 mV higher than that of MnTE-PyP^5+.

[8] = pH 7.8; cited from earlier work
[9] = cited from earlier work
[10] = data from Batinic-Haberle et al 2002, cited from earlier work
[11] = system: wild type AB1157 E. coli; assay: Aerobic growth of wild type E. coli (toxicity); type: cell-based; conditions: for growth of wild type E. coli: 5AA minimal medium
Procedure: as §1, §2

[12] = previously observed (Batinic-Haberle et al 2002), compared with imidazolyl porphyrins; cited from earlier work
[13] = pH 7.8, (22 ± 1) °C; data from Batinic-Haberle et al 2002 (MnTE-2-PyP: Inorg. Chem. 40:726 (2001)); cited from earlier work
[14] = silica gel TLC, KNO3-saturated H2O/H2O/acetonitrile = 1/1/8
[15] = M9CA medium, range 0.1 to 30 μM

For CCn1cc[n+](CC)c1-c1c2nc(c(-c3n(CC)cc[n+]3CC)c3ccc([n-]3)c(-c3n(CC)cc[n+]3CC)c3nc(c(-c4n(CC)cc[n+]4CC)c4ccc1[n-]4)C=C3)C=C2.[Mn+3] [MnTDE-2-ImP^5+, Mn(III) 5,10,15,20-tetrakis[N,N′-diethylimidazolium-2-yl]porphyrin], the “neurotoxicity lower than the pyridyl compound (MnTE-2-PyP^5+)” value [1] is listed as 16 fold, the “degradation within 2 hours” value [2] is listed as 3% and the “protection of SOD-deficient E. coli” value ([3]; M9CA medium, 1 μM) is listed as “low protection”. The “protection of SOD-deficient E. coli” value ([3]; M9CA medium, 3 μM) was “ineffective”, the “protection of SOD-deficient E. coli” value ([3]; M9CA medium, 30 μM) was “either much higher or near full protection” and the “facilitation of aerobic growth of SOD-deficient E. coli, dependence on concentration” value ([3]; M9CA medium, 1-30 μM) was “concentration-dependent manner”. The “protection of E. coli from oxidative stress” value ([3]; ≦3 μM levels (FIG. 10: 5AA minimal medium)) was “the least effective”, the “Rf (compound path/solvent path), metal-free porphyrin (in parenthesis)” value ([4]; metal-free ligand of the named Mn porphyrin, silica gel TLC, KNO3-saturated H2O/H2O/acetonitrile = 1/1/8) was 0.23 and the “Rf (compound path/solvent path), Mn complex” value [4, 14] was 0.17. The “passing the spinal cord blood barrier compared to MnTE-2-PyP^5+” value [5] was “less effective”, the “protectiveness in spinal cord injury compared to MnTE-2-PyP^5+” value [5] was “lacks protectiveness” and the “log kcat for O2^− dismutation” value [6] was 7.83. For the same compound, the “E1/2 difference of imidazolyl porphyrin vs analogous pyridyl porphyrin” value [7] was “more than 100 mV”, the “Metal-centered redox potential E1/2” value ([7]; Mn(III)/Mn(II), 0.1 M NaCl, 0.05 M phosphate buffer, pH 7.8, ±3 mV) was “+346 mV vs NHE” and the “E1/2 more positive / higher than that of MnTE-2-PyP^5+” value ([7]; difference vs MnTE-2-PyP^5+ (+228 mV vs NHE)) was 118 mV.

For Cu,Zn-SOD: superoxide dismutase enzyme, the “equal rate constants of reduction and oxidation of O2.^−” value [8] is listed as 2e+09 M⁻¹ s⁻¹ and the E1/2 ([9]; literature value for the enzyme) is listed as “~+300 mV vs NHE”.

In the case of CCCCCCCC[n+]1ccccc1-c1c2nc(c(-c3cccc[n+]3CCCCCCCC)c3ccc([n-]3)c(-c3cccc[n+]3CCCCCCCC)c3nc(c(-c4cccc[n+]4CCCCCCCC)c4ccc1[n-]4)C=C3)C=C2.[Mn+3] [MnTnOct-2-PyP^5+], the “Rf (compound path/solvent path), metal-free porphyrin (in parenthesis)” value ([10]; metal-free ligand of the named Mn porphyrin) is given as 0.86, the “Rf (compound path/solvent path), Mn complex” value [10, 14] is given as 0.08 and the “toxicity to E. coli at 100-fold lower concentration” value ([11]; 0.3 μM) is given as “mostly eliminated”. For the same compound, the “growth of wild type E. coli” value ([11]; 3 μM) was “completely inhibited growth”, the “growth of wild type E. coli” value ([11]; up to 25 μM) was “toxic” and the “toxicity to wild type E. coli” value ([11]; M9CA medium, 30 μM (up to 30 μM), listed as n-octyl) was “prevented wild type E. coli to grow; also recorded: prevent wild type E. coli from growing”. The “concentration at which toxicity on the parental (wild type) strain is exerted / becomes observable” value [11, 15] was 300 nM, the “toxicity of metal-free vs Mn(III) complex” value ([11]; separate experiment) was “equally toxic” and the “protection of SOD-deficient E. coli at 0.3 μM compared with 10 μM methyl, ethyl (and MnTDMOE-2-ImP) porphyrins” value ([3]; M9CA medium, 0.3 μM, listed as n-octyl) was “equally protective; also recorded: the same level of protection”. For the same compound, the “concentration at which the compound facilitates growth of SOD-deficient strain (utility)” value [3, 15] was no more than 0.3 µM, the “protection of SOD-deficient E. coli higher than methyl porphyrin” value ([3]; vs methyl porphyrin) was 30 fold and the “lipophilicity higher than methyl porphyrin” value ([4]; Rf, vs methyl porphyrin) was roughly 10 fold. The “stability towards oxidative degradation” value [12] was “same level of stability”, the “log kcat for O2^− dismutation” value [13] was 7.71 and the “Metal-centered redox potential E1/2” value ([9]; Mn(III)/Mn(II), 0.1 M NaCl, 0.05 M phosphate buffer, pH 7.8, data from Batinic-Haberle et al 2002) was “+367 mV vs NHE”.
